Experimental data from patent US12274732B2, “Anti-pathogen composition and methods of use thereof” (Tenfold Technologies, LLC, priority 2017, dated 2025).
Values after ≈ are worked out from the molar mass of the structure shown. Read-outs that look alike come from different tables or passages of the source. Positions of bridges follow the written chain, without caps; N, C: chain ends. Non-standard residues stand in square brackets, D forms with d. Residues, ends and D or L forms follow the SMILES beside them. ξ: configuration not given here. *: point of attachment. Pentadecanoyl(3ξ-OH,15-Gua) = N=C(N)NCCCCCCCCCCCCC(O)CC(=O)*; d(aThr) = C[C@@H](O)[C@@H](N)C(=O)O

Assays:
THP-1 = assay: Cytotoxicity against THP-1 cells (counter-screen of the antiparasitic assays); assay type: cell-based
Description: (§1) The antimicrobial activities of identified fusaricidins were in an in vitro study against several clinically relevant microbes. […] For the in-vitro assays against bacteria, fusaricidins were tested against methicillin-resistant Staphylococcus aureus, vancomycin-resistant Enterococcus faecium, Escherichia coli, and Pseudomonas aeruginosa using four antibacterial drugs methicillin, vancomycin, cefotaxime, and meropenem as controls. […] Fusaricidins were also tested against fungal pathogens Cryptococcus neoformans, Candida albicans, and Aspergillus fumigatus and compared with two antifungal drugs, fluconazole and amphotericin B (Table 13). Moreover, the anti-parasitic activity was also tested against L. donovani and T. brucei (Table 14).

Cryptococcus neoformans = assay: In vitro antimicrobial activity against Cryptococcus neoformans; assay type: cell-based
Description: (§2) Fifty organic extracts were prepared from 25 whole broth of four microbial strains (MS1479, MS2379, MS2820, and MS2414), which were fermented in different media for the antimicrobial testing. Note each whole broth culture generated one n-butanol extract from cultural supernatant and one methanol extract from cell pellets.
(§3) The antimicrobial activities of the 50 organic extracts were studied against three fungal pathogens—Candida albicans, Aspergillus fumigatus, and Cryptococcus neoformans—and five bacterial strains-Methicillin-resistant Staphylococcus aureus (MIRSA), Escherichia coli, Pseudomonas aeruginosa, Klebsiella pneumoniae, and Vancomycin-resistant Enterococcus faecium (VRE) (FIG. 2). The test concentrations for all extracts were in the range of 8-200 μg/mL (Table 3).
The potent activities against the fungal pathogen C. neoformans and the gram-positive bacteria S. aureus, MRSA, and M. intracellulare were also shown in the crude extracts (FIG. 7).
as §1

Klebsiella pneumoniae = assay: In vitro antimicrobial activity against Klebsiella pneumoniae; assay type: cell-based
Description: as §2, §3

Candida albicans = assay: In vitro antimicrobial activity against Candida albicans; assay type: cell-based
Description: as §2, §3, §1

Escherichia coli = assay: In vitro antimicrobial activity against Escherichia coli; assay type: cell-based
Description: as §2, §3, §1

[1] = tested on: Vancomycin-resistant Enterococcus faecium (VRE); assay: In vitro antimicrobial activity against VRE; assay type: cell-based
Description: as §2, §3, §1

Aspergillus fumigatus = assay: In vitro antimicrobial activity against Aspergillus fumigatus; assay type: cell-based
Description: as §2, §3, §1

Pseudomonas aeruginosa = assay: In vitro antimicrobial activity against Pseudomonas aeruginosa; assay type: cell-based
Description: as §2, §3, §1

L. donovani = assay: In-vitro antiparasitic activity against L. donovani; assay type: cell-based
Description: as §1

[2] = tested on: Methicillin-resistant Staphylococcus aureus (MRSA); assay: In vitro antimicrobial activity against MRSA; assay type: cell-based
Description: as §2, §3, §1

[3] = Heat stability of fusaricidins, whole broth autoclaved; assay type: physicochemical; details: fermentation whole broth autoclaved at 121.5° C. for 30 minutes
Description: In order to test the heat stability of fusaricidins, the fermentation whole broth was autoclaved at 121.5° C. for 30 minutes. Fusaricidin contents were analyzed before and after autoclave. Without being bound by a theory, fusaricidin A is heat stable because significant amounts of fusaricidin A were detected after the harsh heat treatment in most cases (FIG. 3B).

T. brucei = assay: In-vitro antiparasitic activity against T. brucei; assay type: cell-based
Description: as §1

[4] = Table 5, extracts tested at 8-200 μg/mL
[5] = Table 12, highest test conc. fusaricidins 20, controls 100 μg/mL
[6] = Table 12, lowest concentration that allows no detectable growth
[7] = test conc. 200-8 μg/mL (extracts), 100-4 or 10-0.4 μg/mL (drugs)

For `C[C@@H]1[C@H](O)[C@@H](C)/C=C/C=C/C=C/C=C/C=C/C=C/C=C/[C@H](O[C@@H]2O[C@H](C)[C@@H](O)[C@H](N)[C@@H]2O)C[C@@H]2O[C@](O)(C[C@@H](O)C[C@@H](O)[C@H](O)CC[C@@H](O)C[C@@H](O)CC(=O)O[C@H]1C)C[C@H](O)[C@H]2C(=O)O` [Amphotericin B], the “THP-1 IC50” value (THP-1) was >2/>2 μg/mL, the “THP-1 IC90” value (THP-1; 90% inhibitory concentration) was >2/>2 μg/mL and the “IC50 against C. neoformans” value (Cryptococcus neoformans; Example 4, column fractions of MS2414 extract (FIG. 7)) was 0.15 µg/mL (≈ 0.162 µM). For the same molecule, the “C. neoformans IC50” value (Cryptococcus neoformans; [4]) was 0.24 µg/mL, the “C. neoformans IC50 (50% growth inhibitory concentration)” value (Cryptococcus neoformans; [5]) was 0.3 µg/mL and the “C. neoformans MIC (minimum inhibitory concentration)” value (Cryptococcus neoformans; [6]) was 0.4 µg/mL. For the same molecule, the “C. neoformans IC50” value (Cryptococcus neoformans; [7]) was 0.24 µg/mL, the “K pneumoniae IC50” value (Klebsiella pneumoniae; [7]) was >100 µg/mL and the “C. albicans IC50” value (Candida albicans; [4]) was <0.1 µg/mL. The “C. albicans IC50 (50% growth inhibitory concentration)” value (Candida albicans; [5]) was 0.4 µg/mL, the “C. albicans MIC (minimum inhibitory concentration)” value (Candida albicans; [6]) was 0.8 µg/mL and the “C. albicans IC50” value (Candida albicans; [7]) was <0.1 µg/mL. For the same molecule, the “E. coli IC50” value (Escherichia coli; [7]) was >100 µg/mL, the “VRE IC50” value [1, 4] was >100 µg/mL and the “VRE IC50” value [1, 7] was >100 µg/mL. The “A. fumigatus IC50” value (Aspergillus fumigatus; [4]) was 1.407 µg/mL, the “A. fumigatus IC50 (50% growth inhibitory concentration)” value (Aspergillus fumigatus; [5]) was 2.4 µg/mL and the “A. fumigatus MIC (minimum inhibitory concentration)” value (Aspergillus fumigatus; [6]) was 3.1 µg/mL. The “A. fumigatus IC50” value (Aspergillus fumigatus; [7]) was 1.407 µg/mL, the “P. aeruginosa IC50” value (Pseudomonas aeruginosa; [7]) was >100 µg/mL and the “L. donovani Amastigote IC50” value (L. donovani; amastigote) was 0.9 µg/mL. For the same molecule, the “L. donovani Amastigote/THP IC50” value (L. donovani; amastigote/THP) was 0.2/0.2 μg/mL, the “L. donovani Amastigote/THP IC90” value (L. donovani; amastigote/THP, 90% inhibitory concentration) was 0.2/0.2 μg/mL and the “L. donovani Amastigote IC90” value (L. donovani; amastigote, 90% inhibitory concentration) was 1.1 µg/mL. The “L. donovani Promastigote IC50” value (L. donovani; promastigote) was 0.3 µg/mL, the “L. donovani Promastigote IC90” value (L. donovani; promastigote, 90% inhibitory concentration) was 0.4 µg/mL and the “MRS IC50” value [2, 4] was >100 µg/mL. For the same molecule, the “MRS IC50” value [2, 7] was >100 µg/mL.
With `CC(C)[C@@H]1NC(=O)[C@@H](C(C)C)NC(=O)[C@@H](NC(=O)CC(O)CCCCCCCCCCCCNC(=N)N)[C@@H](C)OC(=O)[C@@H](C)NC(=O)[C@@H](CC(N)=O)NC(=O)[C@@H]([C@@H](C)O)NC1=O` (some centres unmarked) [Fusaricidin A] ({Pentadecanoyl(3ξ-OH,15-Gua)}-T[dV]V[d(aThr)][dN][dA]; ester 1-C) the heat stability [3] was “heat stable”, the “activity against VRE (in words)” value [1] was “strong activity” and the “activity against MRSA (in words)” value [2] was “strong activity”.
For `CN[C@H](CC(C)C)C(=O)N[C@H]1C(=O)N[C@@H](CC(N)=O)C(=O)N[C@H]2C(=O)N[C@H]3C(=O)N[C@H](C(=O)N[C@H](C(=O)O)c4cc(O)cc(O)c4-c4cc3ccc4O)[C@H](O)c3ccc(c(Cl)c3)Oc3cc2cc(c3O[C@@H]2O[C@H](CO)[C@@H](O)[C@H](O)[C@H]2O[C@H]2C[C@](C)(N)[C@H](O)[C@H](C)O2)Oc2ccc(cc2Cl)[C@H]1O` [Vancomycin], the IC50 (Cryptococcus neoformans; Cryptococcus neoformans, read-out: C. neoformans IC50) was > 100 µg/mL, the “C. neoformans IC50” value (Cryptococcus neoformans; [4]) was >100 µg/mL and the IC50 (Klebsiella pneumoniae; Klebsiella pneumoniae, read-out: K pneumoniae IC50) was > 100 µg/mL. The IC50 (Candida albicans; Candida albicans, read-out: C. albicans IC50) was > 100 µg/mL, the “C. albicans IC50” value (Candida albicans; [4]) was >100 µg/mL and the IC50 (Escherichia coli; Escherichia coli, ATCC2452, read-out: E. coli IC50 (50% growth inhibitory concentration)) was 62.3 µg/mL (≈ 43 µM). The MIC (Escherichia coli; Escherichia coli, ATCC2452, read-out: E. coli MIC (minimum inhibitory concentration)) was > 100 µg/mL, the IC50 (Escherichia coli; Escherichia coli, read-out: E. coli IC50) was 67.4 µg/mL (≈ 46.5 µM) and the IC50 ([1]; Enterococcus faecium, ATCC 700221 / VRE, read-out: VRE IC50 (50% growth inhibitory concentration)) was > 100 µg/mL. The MIC ([1]; Enterococcus faecium, ATCC 700221 / VRE, read-out: VRE MIC (minimum inhibitory concentration)) was > 100 µg/mL, the “VRE IC50” value [1, 4] was >100 µg/mL and the IC50 ([1]; read-out: VRE IC50) was > 100 µg/mL. For the same molecule, the IC50 (Aspergillus fumigatus; Aspergillus fumigatus, read-out: A. fumigatus IC50) was > 100 µg/mL, the “A. fumigatus IC50” value (Aspergillus fumigatus; [4]) was >100 µg/mL and the IC50 (Pseudomonas aeruginosa; Pseudomonas aeruginosa, ATCC2108, read-out: P. aeruginosa IC50 (50% growth inhibitory concentration)) was > 100 µg/mL. For the same molecule, the MIC (Pseudomonas aeruginosa; Pseudomonas aeruginosa, ATCC2108, read-out: P. aeruginosa MIC (minimum inhibitory concentration)) was > 100 µg/mL, the IC50 (Pseudomonas aeruginosa; Pseudomonas aeruginosa, read-out: P. aeruginosa IC50) was > 100 µg/mL and the IC50 ([2]; Staphylococcus aureus, ATCC 1708 / MRSA, read-out: MRSA IC50 (50% growth inhibitory concentration)) was 1.3 µg/mL (≈ 0.897 µM). The MIC ([2]; Staphylococcus aureus, ATCC 1708 / MRSA, read-out: MRSA MIC (minimum inhibitory concentration)) was 1.6 µg/mL (≈ 1.1 µM) and the IC50 ([2]; Staphylococcus aureus, MRSA, read-out: MRS IC50) was 0.17 µg/mL (≈ 0.117 µM).
In the case of `NCCC[C@](N)(C(=O)O)C(F)F` [α-Difluoromethylomithine], the “T. brucei IC50” value (T. brucei) is reported as 5.7 µg/mL and the “T. brucei IC90” value (T. brucei; 90% inhibitory concentration) is reported as 6.6 µg/mL.
